How the values were obtained:
Assay type in all cases: binding
FZD6 = biological target: T1, FZD6 (Homo sapiens, UniProt O60353); experiment: NanoBRET screen HiBiT-FZD6 in HEK293
T1 construct: purchased Promega (in-house HiBiT-GPCR construct library, NanoBRET)
T1 sequence (O60353 19-706): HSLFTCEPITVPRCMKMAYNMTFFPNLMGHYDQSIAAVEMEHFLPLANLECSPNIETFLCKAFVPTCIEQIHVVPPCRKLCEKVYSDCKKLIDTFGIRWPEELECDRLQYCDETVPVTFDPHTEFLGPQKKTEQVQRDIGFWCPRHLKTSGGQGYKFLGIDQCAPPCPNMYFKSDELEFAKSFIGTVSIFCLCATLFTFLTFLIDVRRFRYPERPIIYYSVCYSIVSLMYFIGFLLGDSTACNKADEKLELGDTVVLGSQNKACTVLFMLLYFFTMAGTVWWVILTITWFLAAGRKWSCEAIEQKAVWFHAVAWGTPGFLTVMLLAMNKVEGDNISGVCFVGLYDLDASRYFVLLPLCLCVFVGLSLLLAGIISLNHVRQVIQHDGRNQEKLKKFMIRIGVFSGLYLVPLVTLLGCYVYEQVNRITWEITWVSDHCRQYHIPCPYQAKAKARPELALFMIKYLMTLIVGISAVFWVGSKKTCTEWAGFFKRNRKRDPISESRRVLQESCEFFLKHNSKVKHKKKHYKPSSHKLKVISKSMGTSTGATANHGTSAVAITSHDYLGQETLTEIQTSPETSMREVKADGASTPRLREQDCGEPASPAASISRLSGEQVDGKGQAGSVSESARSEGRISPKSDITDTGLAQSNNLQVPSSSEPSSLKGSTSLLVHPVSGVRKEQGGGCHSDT
Protocol: (§1) Each tracer candidate was screened across the entire library of HiBiT-GPCR constructs using NanoBRET as the detection modality. As depicted in Figure 4A, the specificity of interactions was evaluated through decrease in BRET due to competitive displacement of a bound tracer by excess parental compound. Each tracer was analyzed for binding to each HiBiT-GPCR fusion in the absence and in the presence of competing parental compound. Briefly, HEK293 cells were transfected with HiBiT-GPCR constructs diluted into promoterless DNA to reduce expression and maximize translocation to the cell surface. Each tracer candidate was then screened at concentrations of 1 μM and 0.1 μM across cells expressing these fusions. Cells were treated for 1.5 h with tracer either alone or in the presence of 20 μM competing parental compound (i.e., control). BRET was measured upon addition of purified LgBiT and subsequent complementation with HiBiT genetically fused to a GPCR. The specificity of interactions was assessed through a decrease in BRET signal due to competitive displacement of the bound tracer. To further gauge the robustness of these interactions, the fold response over the control (i.e., BRETtracer/BRETcontrol) was calculated. We chose a 1.5-fold response, which translates to ≥7-fold signal over noise as the minimal threshold required to score an interaction as positive. […]. Below we highlight the screening results obtained for our exemplary fluorescent tracers based on Clozapine, Amitriptyline and AZD1283.
(§2) HiBiT-GPCR DNA constructs were diluted in 10 mM Tris pH 8 to a final concentration of 0.01 μg/μL, arrayed in 96-well plates and stored at −20 °C. For transfection, HEK293 cells were suspended in Opti-MEM (without phenol red) supplemented with 2% fetal bovine serum (Seradigm) and 100 units/mL penicillin–streptomycin (Gibco) at a final concentration of 220,000 cells/mL and dispensed into white 96-well plates at 90 μL/well. Subsequent transfections and screens were carried using an Agilent Bravo Automated Liquid Handling Platform. First, the 96-well HiBiT DNA arrays were diluted 25-fold in Opti-MEM (without serum or phenol red) to a final concentration of 0.0004 μg/μL and 20 μL of the diluted DNAs were transferred into new 96-well plates. Next, promoterless carrier DNA (1 μg/μL) was diluted 25-fold (0.04 μg/μL) and then dispensed into the diluted arrays at 20 μL/well. Following brief mixing, Viafect transfection reagent (Promega) diluted 16-fold into Opti-MEM was dispensed into the plates at 40 μL/well. After mixing by pipetting, plates were incubated for 10 min on the pipetting station deck. The DNA-transfection reagent complexes were then added to plates containing cells. To facilitate the screen, 10 μL of DNA-transfection reagent complexes were added in duplicates to the top 4 and bottom 4 rows, resulting in two identical 48-well arrays per plate. Plates with transfected cells were incubated for 18–20 h at 37 °C/5% CO2. A screen of each tracer across the entire library using two different concentrations requires duplicate plates of transfected cells. Depending on the number of tracers being screened, transfections can be scaled up using the same ratios. The next day, for each tracer, four 20× screening solutions in tracer dilution buffer (Promega) were prepared: two duplicates at final concentration of 20 μM and two duplicates at a final concentration of 2 μM. A competing unmodified compound was added to one of each duplicate at a final concentration of 400 μM. The four resulting solutions were diluted 4-fold in Opti-MEM without serum or phenol red to generate 5× solutions (5 µM and 0.5 µM tracer +/− 100 μM competing compound). To screen the library, a BioTek MultiFlo FX liquid dispenser was used to dispense 22.5 µL of tracer solution to the top 4 rows and 22.5 µL tracer + competing compound solution to the 4 bottom rows. Plates were briefly mixed on an orbital shaker and incubated for 1.5 h at room temperature. […]

GRM5 = biological target: T2, GRM5 (Homo sapiens, UniProt P41594); experiment: NanoBRET screen HiBiT-GRM5 in HEK293
T2 construct: purchased Promega (in-house HiBiT-GPCR construct library, NanoBRET)
Protocol: as §1, §2

P2RY13 = biological target: T3, P2RY13 (Homo sapiens, UniProt Q9BPV8); experiment: NanoBRET screen HiBiT-P2RY13 in HEK293
T3 construct: purchased Promega (in-house HiBiT-GPCR construct library, NanoBRET)
T3 sequence (Q9BPV8 1-354): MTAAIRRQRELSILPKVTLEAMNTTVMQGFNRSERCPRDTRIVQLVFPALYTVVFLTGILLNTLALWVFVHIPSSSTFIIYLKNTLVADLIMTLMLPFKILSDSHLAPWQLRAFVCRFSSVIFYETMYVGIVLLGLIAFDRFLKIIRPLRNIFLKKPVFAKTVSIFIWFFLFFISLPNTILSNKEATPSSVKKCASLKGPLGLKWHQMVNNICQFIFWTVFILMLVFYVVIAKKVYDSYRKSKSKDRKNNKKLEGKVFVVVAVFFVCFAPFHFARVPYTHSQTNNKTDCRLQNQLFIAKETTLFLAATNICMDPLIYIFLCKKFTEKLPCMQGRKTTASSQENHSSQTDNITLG
Protocol: as §1, §2

HTR1E = biological target: T4, HTR1E (Homo sapiens, UniProt P28566); experiment: NanoBRET screen HiBiT-HTR1E in HEK293
T4 construct: purchased Promega (in-house HiBiT-GPCR construct library, NanoBRET)
Protocol: as §1, §2

T2 sequence (P41594 21-1212): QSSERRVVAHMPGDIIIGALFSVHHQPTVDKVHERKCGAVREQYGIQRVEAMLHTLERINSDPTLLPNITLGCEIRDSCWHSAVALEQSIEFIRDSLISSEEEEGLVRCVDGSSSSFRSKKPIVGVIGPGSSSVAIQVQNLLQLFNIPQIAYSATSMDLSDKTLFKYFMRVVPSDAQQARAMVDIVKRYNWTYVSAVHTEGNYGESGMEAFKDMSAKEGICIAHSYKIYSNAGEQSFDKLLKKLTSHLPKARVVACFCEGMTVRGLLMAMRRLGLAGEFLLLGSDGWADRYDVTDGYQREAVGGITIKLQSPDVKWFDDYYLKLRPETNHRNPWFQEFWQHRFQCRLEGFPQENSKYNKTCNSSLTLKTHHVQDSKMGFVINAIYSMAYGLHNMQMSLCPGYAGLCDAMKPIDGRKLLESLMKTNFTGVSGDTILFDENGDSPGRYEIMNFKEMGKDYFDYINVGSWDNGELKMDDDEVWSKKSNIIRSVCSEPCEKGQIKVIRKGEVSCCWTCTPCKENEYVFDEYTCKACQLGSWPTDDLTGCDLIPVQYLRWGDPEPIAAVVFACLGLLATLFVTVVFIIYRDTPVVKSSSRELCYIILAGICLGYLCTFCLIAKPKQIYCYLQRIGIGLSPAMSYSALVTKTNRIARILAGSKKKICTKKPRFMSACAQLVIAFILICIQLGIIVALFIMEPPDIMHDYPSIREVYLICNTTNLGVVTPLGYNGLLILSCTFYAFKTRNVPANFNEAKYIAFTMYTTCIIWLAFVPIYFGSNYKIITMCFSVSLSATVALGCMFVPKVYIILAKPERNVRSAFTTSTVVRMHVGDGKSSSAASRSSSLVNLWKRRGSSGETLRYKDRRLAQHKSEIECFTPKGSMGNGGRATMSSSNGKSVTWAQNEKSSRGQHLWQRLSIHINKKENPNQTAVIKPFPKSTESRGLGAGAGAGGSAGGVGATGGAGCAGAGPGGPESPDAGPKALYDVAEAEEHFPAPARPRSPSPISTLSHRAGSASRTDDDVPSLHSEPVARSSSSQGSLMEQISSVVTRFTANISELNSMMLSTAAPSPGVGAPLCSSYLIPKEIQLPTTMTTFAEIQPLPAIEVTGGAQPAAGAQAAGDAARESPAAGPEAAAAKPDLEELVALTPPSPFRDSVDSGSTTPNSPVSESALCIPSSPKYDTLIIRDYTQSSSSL
T4 sequence (P28566 whole entry): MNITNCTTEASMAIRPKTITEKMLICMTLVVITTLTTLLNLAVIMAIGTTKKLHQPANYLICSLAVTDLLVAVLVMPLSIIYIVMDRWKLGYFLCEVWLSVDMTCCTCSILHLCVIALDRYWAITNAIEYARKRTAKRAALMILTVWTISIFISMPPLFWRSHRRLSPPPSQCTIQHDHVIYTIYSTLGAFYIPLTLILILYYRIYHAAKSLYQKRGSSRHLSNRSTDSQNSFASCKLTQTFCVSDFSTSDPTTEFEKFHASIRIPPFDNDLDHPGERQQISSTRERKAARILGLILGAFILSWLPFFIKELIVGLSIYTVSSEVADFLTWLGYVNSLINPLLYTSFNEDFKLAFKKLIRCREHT

NanoBRET Fold Response (FZD6; 0.1μM tracer)	NanoBRET Fold Response (FZD6; 1μM tracer)	NanoBRET Fold Response (GRM5; 0.1μM tracer)	NanoBRET Fold Response (GRM5; 1μM tracer)	NanoBRET Fold Response (P2RY13; 0.1μM tracer)	NanoBRET Fold Response (P2RY13; 1μM tracer)	NanoBRET Fold Response (HTR1E; 0.1μM tracer)	NanoBRET Fold Response (HTR1E; 1μM tracer)	SMILES	NanoBRET Fold Response (FZD6; FZD6, 0.1μM tracer)	NanoBRET Fold Response (FZD6; FZD6, 1μM tracer)	NanoBRET Fold Response (GRM5; GRM5, 0.1μM tracer)	NanoBRET Fold Response (GRM5; GRM5, 1μM tracer)	NanoBRET Fold Response (P2RY13; P2RY13, 0.1μM tracer)	NanoBRET Fold Response (P2RY13; P2RY13, 1μM tracer)	NanoBRET Fold Response (HTR1E; HTR1E, 0.1μM tracer)	NanoBRET Fold Response (HTR1E; HTR1E, 1μM tracer)	also measured
1.09	0.86	0.84	0.95	1.08	1.08	0.99	0.99	COc1ccc2c(n1)c(CCNC(C)=O)cn2CCNC(=O)CCc1ccc2n1[B-](F)(F)[N+]1=C(c3ccc[nH]3)C=CC1=C2 [Azamelatonin-1-NB590]									
1.12	0.94	0.97	1.03	0.87	1.09	0.97	1.18	COc1ccc2[nH]c(-c3ccc(CNC(=O)CCOCCOCCOCCOCCNC(=O)CCc4ccc5n4[B-](F)(F)[N+]4=C(c6ccc[nH]6)C=CC4=C5)cc3)c(CCNC(C)=O)c2n1 [AzomelatoninICO9-2-NB590]									
								O=C(CCOCCOCCOCCOCCNC(=O)CCc1ccc2n1[B-](F)(F)[N+]1=C(c3ccc[nH]3)C=CC1=C2)NCCCN1CCN(C2=Nc3cc(Cl)ccc3Nc3ccccc32)CC1 [Clozapine-a-2-NB590]	0.99	0.93	0.99	1.10	1.06	0.94	1.01	0.96	
								CN1CCN(C2=Nc3cc(Cl)ccc3Nc3ccc(CNC(=O)CCOCCOCCOCCOCCNC(=O)CCc4ccc5n4[B-](F)(F)[N+]4=C(c6ccc[nH]6)C=CC4=C5)cc32)CC1 [Clozapine-b-2-NB590]	1.03	1.04	0.99	1.01	1.02	0.99	0.99	0.97	
								CN1CCN(C2=Nc3cc(Cl)ccc3N(CC(=O)NCCOCCOCCOCCOCCNC(=O)CCc3ccc4n3[B-](F)(F)[N+]3=C(c5ccc[nH]5)C=CC3=C4)c3ccccc32)CC1 [Clozapine-c-2-NB590]	1.01	1.04	0.99	1.12	0.99	0.99	1.00	0.91	
								O=C(CCOCCOCCOCCOCCNC(=O)CCc1ccc2n1[B-](F)(F)[N+]1=C(c3ccc[nH]3)C=CC1=C2)NCCCN1CCN(C2=Nc3ccccc3Oc3ccc(Cl)cc32)CC1 [Loxapine-a-2-NB590]									NanoBRET Fold Response (FZD6; FZD6, tracer 0.1μM): 1.09; NanoBRET Fold Response (FZD6; FZD6, tracer 1μM): 1.06; NanoBRET Fold Response (GRM5; GRM5, tracer 0.1μM): 1.00; NanoBRET Fold Response (GRM5; GRM5, tracer 1μM): 1.04; NanoBRET Fold Response (P2RY13; P2RY13, tracer 0.1μM): 0.92; NanoBRET Fold Response (P2RY13; P2RY13, tracer 1μM): 0.96; NanoBRET Fold Response (HTR1E; HTR1E, tracer 0.1μM): 1.01; NanoBRET Fold Response (HTR1E; HTR1E, tracer 1μM): 0.96
